Source: BindingDB's records for patent US12138263 (Relay Therapeutics, 2024)

Target: T1, Tyrosine-protein phosphatase non-receptor type 11 (Homo sapiens, UniProt Q06124)
T1 sequence (Q06124 whole entry): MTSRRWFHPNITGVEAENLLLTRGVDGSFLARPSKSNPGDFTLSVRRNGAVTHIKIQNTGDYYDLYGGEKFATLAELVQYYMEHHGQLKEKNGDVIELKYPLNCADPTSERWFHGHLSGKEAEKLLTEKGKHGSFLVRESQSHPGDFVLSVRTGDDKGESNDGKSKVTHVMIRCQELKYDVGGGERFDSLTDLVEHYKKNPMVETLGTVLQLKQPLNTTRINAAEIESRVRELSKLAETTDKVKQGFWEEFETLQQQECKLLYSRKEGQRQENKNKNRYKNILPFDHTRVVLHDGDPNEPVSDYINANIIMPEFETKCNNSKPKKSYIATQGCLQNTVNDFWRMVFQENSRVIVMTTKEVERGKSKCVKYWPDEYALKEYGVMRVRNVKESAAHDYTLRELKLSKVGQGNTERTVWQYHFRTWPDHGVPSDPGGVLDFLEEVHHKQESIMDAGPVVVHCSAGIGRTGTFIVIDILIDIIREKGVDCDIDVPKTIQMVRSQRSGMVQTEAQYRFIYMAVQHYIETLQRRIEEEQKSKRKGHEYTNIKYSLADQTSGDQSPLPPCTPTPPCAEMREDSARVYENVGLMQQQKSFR
Assay: SPH2 Allosteric Inhibition Assay and Binding

`CC1(CN)CCN(c2cnc3c(N4CCCc5c4cccc5S(=O)(=O)F)n[nH]c3n2)CC1` [US12138263, Compound 5A] was tested, and the IC50 was less than 1 µM.
